Here are results for three compounds from US20150320783A1, “N-METHY[…] RELATED SUBSTANCES FOR USE IN TREATING / LESSENING THE OCCURRENCE OF HOT FLASHES RELATED TO MENOPAUSE” (DSM IP ASSETS B.V., priority 2013, published 2015).

What all share (type): in vivo, rat
One data set concerns plasma estradiol. The data set is described as follows: Circulating (plasma) estradiol levels in ovariectomized female rats. The following applies: for plasma estradiol: first study, FIG. 5, dietary NMS supplementation, estradiol supplemented animals. The source says: (§1) The animals arrived at approximately 60 days of age, and were placed on specific diets throughout the study (to approximately 160 days of age). The diets were formulated and provided by Dyets Inc. (Bethlehem, Pa.) and are based on a modified AIN-93G diet. These diets were fed ad libitum. Two weeks after arrival, at approximately […] of age, the animals were ovariectomized, allowed to recover for three weeks, and then placed on defined diets. In the first study, these diets contained 0, 0.08, 0.48, 3.2, 18.5, 185, or 3700 μg/kg/day of NMS dihydrochloride (FIG. 2). In the second, follow-up study, the diets contained no NMS (control), NMS oxalate (18.5 or 55.5 μg/kg/d), or milled Zanthoxylum seed in quantities that supplied NMS-glucoside at equivalent doses (18.5 or 55.5 μg/kg/d; FIG. 8). The NMS and NMS-glucoside content was verified using liquid chromatography with mass spectrometric etection. Extraction methods were similar to those of Yanase et al., 2010.
(§2) All diets were fed for 2 weeks prior to the first behavioral assessment (open field). Positive control animals received a 5.0 mm subcutaneous silastic capsule implant packed with a crystalline 17β-estradiol and cholesterol mixture (25%, 0.058 inch inner diameter, 0.077 inch outer diameter; Dow Corning #508-006). Animals were then examined for locomotor activity (open field) and in two behavioral assays to assess mood (elevated plus maze and swim test) separated by two weeks in-between each assay. Two weeks after the final behavioral task (swim test), the animals were anesthetized and their physiological response to an experimentally-induced hot flash was tested. After the temperature monitoring was complete, tissue was harvested while the animals were still anesthetized.

Data set [1] concerns ovariectomized female rats. Briefly: Uterine weight (uterotrophic effect) in ovariectomized female rats. As to conditions: vs ovariectomized controls; for uterine weight: first study, FIG. 6D, after 80 days of supplementation; for uterine weight / uterine growth: follow-up study, FIG. 11A.
Text: as §1, §2

Data set [2] deals with ovariectomized female rats. The data set is described as follows: CGRP-induced hot flash response (skin temperature) in ovariectomized rats.
Text: as §1, §2
Two weeks after arrival, each animal was anesthetized via isoflurane inhalation and the dorsal mid-lumbar area was shaved and swabbed with surgical scrub, iodine and alcohol. The animal was then placed on a warm heat pad covered by a sterile cloth/pad in ventral recumbency with tail towards surgeon. A 2-3 cm dorsal midline skin incision was made halfway between the caudal edge of the ribcage and the base of the tail. A single transverse incision of 5.5-10 mm long was made into the muscle wall on both the right and left sides approximately ⅓ of the distance between the spinal cord and the ventral midline. The ovary and the oviduct were exteriorized through the muscle wall. A hemostat was clamped around the uterine vasculature between the oviduct and uterus and the uterine vasculature was ligated with dissolvable suture. Each ovary and part of the oviduct was removed with single cuts through the oviducts near the ovary. The hemostat was removed, and the remaining tissue replaced into the peritoneal cavity. The ovary on the other side was removed in a similar manner. The muscle incision is not sutured. Sterile wound clips were used to close the skin incision. Animals were monitored daily for signs of infection or morbidity.
Animals were anesthetized with intraperitoneal co-injection of urethane (750 mg/kg) and α-chloralose (60 mg/kg). […] Thermistor probes (ADI Instruments, Colorado Springs, Colo.) were taped to the plantar surfaces of one hind foot. Forty minutes later, after anesthesia-induced hypothermia had stabilized, the basal skin temperature was recorded. Temperature monitoring then occurred at 5-second intervals throughout the remainder of the experiment. Calcitonin gene related peptide (CGRP; 10 μg/kg, i.v.) dissolved in saline was then injected via the tail vein. A maximum of eight animals were tested at the same time due to limitations on instrumental throughput. Cage mates were always tested together in order to avoid the stresses of single-housing and the potential stress hormone effects on body temperature. Therefore only four groups could be tested within any one given day.

The subject of data set [3] is ovariectomized female rats. The data set is described as follows: Behavioral measures of mood (open field, elevated plus maze, swim test).
Text: as §2, with “After the temperature monitoring was complete, tissue was harvested while the animals were still anesthetized.” left out
Animals were tested in the open field to measure overall locomotor activity and basal anxiety state. […] Rats were placed in the middle of the chamber and behavior in the open field was recorded for thirty minutes with a digital camera and measured by software (AnyMaze, Stoelting Co., Inc.). The following parameters were analyzed: a) total distance traveled; b) time in center; c) center entries; and d) number of fecal boli excreted.
Animals were tested on the elevated plus maze to measure anxiety-related behavior. […] Each rat was placed in the central platform facing one of the open arms, and its behavior was recorded during a 5-min testing period with video capture software (AnyMaze). […]

Data set [4] is described as follows: Body weight of ovariectomized female rats. As to conditions: for body weight: FIG. 6A, dietary NMS vs control diet, estradiol implanted, throughout the experiment.
Text: as §1, §2

For data set [5], the system named is ovariectomized female rats. The data set is described as follows: Forced swim test (depressive-like behaviors). The following applies: first study, FIG. 7A; estradiol implanted. The method, then:
Each rat was examined in the swim test for depressive-like behaviors. The test was performed over two consecutive days since it is a measure of an adaptive response to a perceived inescapable situation. The first test establishes to the animal that it is an inescapable situation, and the second test measures the animal's degree of passive coping derived from an unwillingness to maintain effort in an inescapable situation. Typical antidepressants limit the amount of passive coping (immobility) and promote the amount of active coping (swimming/climbing). On day one (0800 h to 1300 h), animals were acclimated to the test by placing them in a plexiglass cylindrical container (45 cm×20 cm) filled with 30 cm of fresh water (25° C.) for fifteen minutes, after which they were toweled dried and returned to their home cage. On day two (24 hrs later) the test was performed for a total swim time of five minutes, after which the rats were toweled dried and returned to their home cage. Both trials were recorded by a digital video camera was secured to the ceiling above the cylinders and connected to a laptop. Total time spent swimming and immobile was measured real-time by behavioral software (Anymaze, Stoelting Co.), and scored post hoc by a blinded experimenter from captured video. […]

The mark [6] stands for this setting: first study, representative data FIG. 3, 0.48 ug/kg/d NMS through diet vs untreated controls.
Where [7] appears, read: first study, dietary NMS, dose not stated, estradiol subcutaneous, no dietary NMS (positive control).
The mark [8] stands for this setting: first study, dietary NMS, dose not stated, estradiol subcutaneous, no dietary NMS (positive control), CGRP 10 μg/kg i.v.
Setting [9] is: follow-up study, FIG. 9, milled Zanthoxylum seed supplying NMS-glucoside 18.5 or 55.5 μg/kg/d, NMS oxalate 18.5 or 55.5 μg/kg/d, or estradiol, vs untreated controls.

“Also recorded” adds a separate entry of the source.

As for `CNCCc1c[nH]c2ccc(O)cc12` [NMS, N-methylserotonin], the plasma estradiol entry in the data set with plasma estradiol was “increased plasma estradiol in a dose-dependent manner”. Also, in the data set on plasma estradiol (results summary), the non-uterine estradiol secretion entry is “tripled”. Besides, the uterine weight result in data set [1] was “did not alter uterine weight”. For the same compound, the “uterine weight / uterine growth” value in data set [1] is “did not alter uterine weight”. Besides, the basal skin temperature result is listed as “lower basal temperatures; also recorded: decreased basal skin temperature” in data set [2] (first study, FIG. 3 and 4, 18.5 ug/kg/d NMS through diet vs untreated controls); “lower basal temperatures” in data set [2] (setting [6]). For the same compound, the “CGRP response above calculated baseline (skin temperature)” value is “lower CGRP responses” in data set [2] (setting [6]) and “lower CGRP responses” in data set [2] (first study, representative data FIG. 3, 18.5 ug/kg/d NMS through diet vs untreated controls). For the same compound, in data set [2] (setting [7]), the “basal (baseline) skin temperature” value was “reduced baseline skin temperature”. The “CGRP-induced hot flash response” value in data set [2] (setting [8]) and in data set [2] (setting [9]) was “blunted the CGRP-induced hot flash response” each time. Moreover, the “behavioral measures of mood” value in data set [3] (first study, FIG. 7, dietary NMS) is “did not alter behavioral measures of mood”. In addition, the “behavioral measures of mood / mood-related behaviors” value in data set [3] (follow-up study, FIG. 10) is given as “did not alter behavioral measures of mood”. Moreover, the body weight result in data set [4] (first study) was “did not alter body weight”. Besides, the “weight change as a percentage of original weight” value in data set [4] (first study, FIG. 6B and C, throughout or at the end of the study) was “not different between dietary treatments”.

As to `C[C@]12CC[C@@H]3c4ccc(O)cc4CC[C@H]3[C@@H]1CC[C@@H]2O` [estradiol, 17β-estradiol, reference compound], the plasma estradiol result with plasma estradiol was “highest levels of plasma estradiol”. For the same compound, in data set [1], the uterine weight entry is given as “significantly higher uterine weights”. Further, the “uterine weight / uterine growth” value in data set [1] is reported as “significantly higher uterine weights”. Besides, the “time immobile during the second session of the forced swim test” value in data set [5] is “spent less time immobile”. Further, the “basal (baseline) skin temperature” value in data set [2] (setting [7]) was “lowest basal temperatures”. Moreover, the figures for the “CGRP-induced hot flash response” value in data set [2] (setting [8]) and in data set [2] (setting [9]) were “lowest responses to CGRP” and “blunted the CGRP-induced hot flash response”, respectively. In addition, the body weight entry in data set [4] (first study) was “significantly lower body weight”. Besides, in data set [4] (follow-up study, FIG. 11B, estradiol implanted vs all other groups), the “body weight throughout the experiment” value is listed as “significantly lower body weight”.

As for `CNCCc1c[nH]c2ccc(O[C@@H]3O[C@H](CO)[C@@H](O)[C@H](O)[C@H]3O)cc12` [NMS-glucoside, N-methylserotonin 5-O-β-glucoside], the “CGRP-induced hot flash response” value in data set [2] (setting [9]) is given as “blunted the CGRP-induced hot flash response”.
